In patent US20190282496A1 (Bryn Pharma, LLC, priority 2018, published 2019):

How the values were obtained:
[1] = test system: histamine induced nasal congestion
[2] = dogs; concomitant intranasal administration of phentolamine; Bleske et al.; cited from earlier work

| SMILES | nasal congestion and flow restriction pressure ([1]; Group 1, 5 and 10 minutes post-histamine exposure) | histamine-induced nasal congestion ([1]; aerosolized 5% histamine, all animals) | histamine induced congestion without epinephrine administration ([1]; pilot study, 60, 80 and 100 minute time points) | epinephrine plasma levels following intranasal administration [2] |
| --- | --- | --- | --- | --- |
| NCCc1c[nH]cn1 [Histamine] | progressive increase | induced congestion in all animals to varying degrees | remains elevated at significant levels | – |
| Cc1ccc(N(CC2=NCCN2)c2cccc(O)c2)cc1 [phentolamine] | – | – | – | enhanced |
